Experimental data reported in article PMC4232510, “Identification of Functionally Important Residues of the Rat P2X4 Receptor by Alanine Scanning Mutagenesis of the Dorsal Fin and Left Flipper Domains” (PLoS ONE, 2014).
Substitutions are numbered along the chain they refer to. Values joined by “and” are separate entries in the source; they are usually repeats but may differ in a detail not shown here. Equal values may be shown once. Each block holds one compound with its values, some of them ahead of it.

Legend:
Format in all cases: cell-based
wild type (WT) rP2X4R = target: T1, wild type (WT) rP2X4R (Rattus norvegicus, UniProt P51577); assay: whole-cell patch clamp, HEK293T cells expressing WT receptor; conditions: for relative responsiveness: 100 µM agonist 2 s, relative to ATP (100%); for EC50: naïve receptors, 2–5 s application
T1 construct: expressed in transfected cells; host or cells: HEK293T
T1 sequence (P51577 1-388): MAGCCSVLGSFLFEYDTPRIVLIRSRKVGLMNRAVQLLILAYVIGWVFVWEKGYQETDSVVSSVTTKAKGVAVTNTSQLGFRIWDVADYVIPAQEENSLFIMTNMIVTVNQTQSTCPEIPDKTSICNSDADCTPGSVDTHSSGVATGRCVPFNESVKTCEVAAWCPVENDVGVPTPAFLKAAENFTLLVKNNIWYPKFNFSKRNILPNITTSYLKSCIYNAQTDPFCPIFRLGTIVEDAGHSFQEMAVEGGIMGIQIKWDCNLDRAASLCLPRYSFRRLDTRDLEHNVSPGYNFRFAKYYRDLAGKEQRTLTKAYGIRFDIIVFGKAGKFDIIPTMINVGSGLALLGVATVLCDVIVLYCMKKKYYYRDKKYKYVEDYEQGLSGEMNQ
Description: (§1) To express the recombinant channels, we used human embryonic kidney (HEK) 293T cells (American Type Culture Collection, Rockville, MD, USA) grown in Dulbecco modified Eagle’s medium (Thermo Fisher Scientific, Waltham, MA) supplemented with 10% fetal bovine serum (Sigma-Aldrich, St Louis, MO), 50 U/ml penicillin and 50 µg/ml streptomycin (both Thermo Fisher Scientific, Waltham, MA) in a humidified 5% CO2 and 95% air at 37°C. Cells were cultured in 75 cm^2 plastic culture flasks (NUNC, Rochester, NY) for 36–72 hours until reaching 80–95% confluence. Before the day of transfection, the cells were plated on 35 mm culture dishes (Sarstedt, Newton, NC) and incubated at 37°C for at least 24 h. Transfection was done using 2 µg of either WT or mutant receptor DNA with 2 µl of JetPrime reagent in 2 ml of Dulbecco modified Eagle’s medium, according to manufacturer’s instructions (PolyPlus-transfection, Illkirch, France). Transfected cells were identified by the fluorescence signal of EGFP using the Olympus IX71 inverted research microscope with fluorescence illuminators (Model IX71; Olympus, Melville, NY).
(§2) cDNAs encoding the sequences of the rP2X4 and mutated subunits were subcloned into the pIRES2-EGFP vector (Clontech, Mountain View, CA, USA). To generate the mutants, oligonucleotides (synthesized and provided by VBC-Genomics, Vienna, Austria or Sigma Aldrich) containing specific mutagenesis mismatches were introduced into the rP2X4/pIRES2-EGFP template using PfU Ultra DNA polymerase (Thermo Fisher Scientific). A High-Speed Plasmid Mini Kit (Geneaid, Taipei City, Taiwan) was used to isolate the plasmids for transfection. Dye terminator cycle sequencing (ABI PRISM 3100, Applied Biosystems, Foster City, CA) was used to identify and verify the presence of the mutations. The sequencing was performed by the DNA Sequencing Laboratory, Institute of Microbiology, ASCR, Prague.
(§3) ATP-induced currents were recorded from whole cells clamped to −60 mV using an Axopatch 200B patch-clamp amplifier (Axon Instruments, Union City, CA). The recordings were captured and stored using the Digidata 1322A and pClamp9 software package (Axon Instruments). During the experiments, the cell culture was perfused with a bath solution containing: 142 mM NaCl, 3 mM KCl, 2 mM CaCl2, 1 mM MgCl2, 10 mM 4-(2-Hydroxyethyl)piperazine-1-ethanesulfonic acid (HEPES) and 10 mM D-glucose, adjusted to pH 7.3 with 1 M NaOH. The patch electrodes were filled with a solution containing: 154 mM CsCl, 11 mM EGTA and 10 mM HEPES, adjusted to pH 7.2 with 1.6 M CsOH. The whole-cell configuration was used to abolish the influence of natively present metabotropic receptors for ATP and we used intracellular cesium to block any kind of possible background potassium conductance. Potency of ATP was measured based on the activation of naïve (not previously stimulated) receptors using a short (2–5 s) application of various concentrations of ATP. The results are expressed as molar concentration of ATP required to produce 50% of the maximal response (EC50). One or two responses were recorded from one cell, if not otherwise stated, and responses from different cells were pooled. The maximum current amplitude (Imax) was measured in response to application of supramaximal concentrations (100–1000 µM) of ATP. Responsiveness to P2XR agonists 2-MeS-ATP, ATPγS, BzATP, and α,β-meATP, all applied in 100 µM concentration, was expressed as percentage of response in comparison to 100 µM ATP treatment for selected mutants. In all mutants, the whole cell currents were also measured in the presence of 3 µM IVM, which was dissolved in dimethyl sulfoxide, stored in stock solutions at 10 mM, and diluted to required concentrations in bath solution in the day of experiment. The control and drug containing solutions were applied via a rapid (exchange time 30–40 ms) perfusion system (RSC-200, BIOLOGIC, Claix, France). All other chemicals are from Sigma-Aldrich. […]

rP2X4R G291A mutant = target: T2, rP2X4R G291A mutant (Rattus norvegicus, UniProt P51577, G291A); assay: whole-cell patch clamp, HEK293T cells expressing mutant; conditions: for relative responsiveness: 100 µM agonist 2 s, relative to ATP (100%)
T2 construct: expressed in transfected cells; host or cells: HEK293T
T2 sequence (P51577 1-388 G291A): T1 sequence (P51577 1-388) with G291A
Description: as §1, §2, §3

rP2X4R N208A mutant = target: T3, rP2X4R N208A mutant (Rattus norvegicus, UniProt P51577, N208A); assay: as above; conditions: for relative responsiveness: 100 µM agonist 2 s, relative to ATP (100%)
T3 construct: expressed in transfected cells; host or cells: HEK293T
T3 sequence (P51577 1-388 N208A): T1 sequence (P51577 1-388) with N208A
Description: as §1, §2, §3

[1] = 100 µM ATP 60 s, biexponential fit
[2] = contribution of τdes2, 100 µM ATP 60 s
[3] = decay after removal of 1 or 3 µM ATP, 3 µM IVM
[4] = naïve receptors, 2–5 s application
[5] = 3 µM IVM 4-6 min vs IVM-untreated

Compound: 2′(3′-O-(4-Benzoylbenzoyl)adenosine 5′-triphosphate [BzATP]
relative responsiveness (wild type (WT) rP2X4R): 38% and 38.2±3.4%
EC50 (wild type (WT) rP2X4R): 11.1 ± 2.9 µM
relative responsiveness (rP2X4R G291A mutant): 53.0±4.0 %
relative responsiveness (rP2X4R N208A mutant): 33.4±5.4%

relative responsiveness (wild type (WT) rP2X4R): 67% and 67.3±4.6%
EC50 (wild type (WT) rP2X4R): 7.9 ± 1 µM
relative responsiveness (rP2X4R G291A mutant): 36.9±8.8 %
relative responsiveness (rP2X4R N208A mutant): 60.0±11.2%
Compound: CSc1nc(N)c2ncn([C@@H]3O[C@H](COP(=O)(O)OP(=O)(O)OP(=O)(O)O)[C@@H](O)[C@H]3O)c2n1 [2-MeS-ATP, 2-(Methylthio)adenosine 5′-triphosphate]

Compound: Nc1ncnc2c1ncn2[C@@H]1O[C@H](COP(=O)(O)OP(=O)(O)OP(=O)(O)O)[C@@H](O)[C@H]1O [ATP]
τdes1 (wild type (WT) rP2X4R; [1]): 1.3 ± 0.2 s
τdes2 (wild type (WT) rP2X4R; [1]): 9.0 ± 0.7 s
relative responsiveness (wild type (WT) rP2X4R): 100%
Imax (wild type (WT) rP2X4R; 100–1000 µM ATP): 2.2 ± 0.2 nA
Imax+IVM (wild type (WT) rP2X4R; ATP after 3 µM IVM 4-6 min): 3.4 ± 0.3 nA
A2 /(A1+A2) (wild type (WT) rP2X4R; [2]): 63 ± 3%
τoff +IVM (wild type (WT) rP2X4R; [3]): 21 ± 1.0 s
EC50 (wild type (WT) rP2X4R): 2.3 ± 0.4 µM
τdes (wild type (WT) rP2X4R; weighted, 100 µM ATP 60 s): 6.0 ± 0.4 s
τdes1 (rP2X4R G291A mutant; [1]): 2.0 ± 0.5 s
τdes2 (rP2X4R G291A mutant; [1]): 16.5 ± 2.7 s
Imax (rP2X4R G291A mutant; 100–1000 µM ATP): 2.1 ± 0.2 nA
Imax+IVM (rP2X4R G291A mutant; ATP after 3 µM IVM 4-6 min): 3.3 ± 0.4 nA
A2 /(A1+A2) (rP2X4R G291A mutant; [2]): 69 ± 12%
τoff +IVM (rP2X4R G291A mutant; [3]): 13 ± 1.0 s
EC50 (rP2X4R G291A mutant; [4]): 15 ± 3.8 µM
τdes (rP2X4R G291A mutant; weighted, 100 µM ATP 60 s): 13 ± 2.7 s
τdes1 (rP2X4R N208A mutant; [1]): 1.1 ± 0.8 s
τdes2 (rP2X4R N208A mutant; [1]): 8.7 ± 4.8 s
Imax (rP2X4R N208A mutant; 100–1000 µM ATP): 1.7 ± 0.3 nA
Imax+IVM (rP2X4R N208A mutant; ATP after 3 µM IVM 4-6 min): 3.6 ± 0.3 nA
A2 /(A1+A2) (rP2X4R N208A mutant; [2]): 77 ± 4%
τoff +IVM (rP2X4R N208A mutant; [3]): 9.1 ± 0.2 s
EC50 (rP2X4R N208A mutant; [4]): 7.6 ± 2.1 µM
τdes (rP2X4R N208A mutant; weighted, 100 µM ATP 60 s): 6.8 ± 3.5 s

relative responsiveness (wild type (WT) rP2X4R): 50% and 49.6±3.5%
EC50 (wild type (WT) rP2X4R): 8.4 ± 1.8 µM
relative responsiveness (rP2X4R G291A mutant): 31.6±6.1 %
relative responsiveness (rP2X4R N208A mutant): 42.2±5.2%
Compound: Nc1ncnc2c1ncn2[C@@H]1O[C@H](CO[P@](=O)(O)O[P@](=O)(O)O[P@@](=O)(O)S)[C@@H](O)[C@H]1O [ATPγS, Adenosine 5′-(γ-thio)triphosphate]

Compound: CC[C@H](C)[C@H]1O[C@]2(CC[C@@H]1C)C[C@@H]1C[C@@H](C/C=C(\C)[C@@H](O[C@H]3C[C@H](OC)[C@@H](O[C@H]4C[C@H](OC)[C@@H](O)[C@H](C)O4)[C@H](C)O3)[C@@H](C)/C=C/C=C3\CO[C@@H]4[C@H](O)C(C)=C[C@@H](C(=O)O1)[C@]34O)O2 [IVM, ivermectin]
Fold incr. Imax (wild type (WT) rP2X4R; [5]): 1.7 ± 0.2 fold
Fold incr. Imax (rP2X4R G291A mutant; [5]): 1.4 ± 0.02 fold
Fold incr. Imax (rP2X4R N208A mutant; [5]): 2.3 ± 0.5 fold

Compound: Nc1ncnc2c1ncn2C1OC(COP(=O)(O)CP(=O)(O)OP(=O)(O)O)C(O)C1O (stereo not drawn) [α,β-meATP, α,β-methyleneadenosine 5′-triphosphate]
relative responsiveness (wild type (WT) rP2X4R): 32% and 31.8±3.3%
EC50 (wild type (WT) rP2X4R): 62 ± 18 µM
relative responsiveness (rP2X4R G291A mutant): 2.8±0.5 %
relative responsiveness (rP2X4R N208A mutant): 28.5±2.3%
